Test results published in patent US20250049860A1, “METHOD FOR ISOLATING, MAINTAINING, PROLIFERATING, AND DIFFERENTIATING MONOCLONAL CELLS DERIVED FROM HUMAN SALIVARY GLAND EPITHELIAL STEM CELLS OR PROGENITOR CELLS AND PRODUCTION METHOD FOR EXTRACELLULAR VESICLES FOR TREATING SALIVARY GLAND DISEASES” (INDUSTRY-ACADEMIC COOPERATION FOUNDATION, YONSEI UNIVERSITY, priority 2021, published 2025).

B1: WNT: growth factor WNT3A, Recombinant Human Wnt-3a Protein (protein, UniProt P56704 19-352, looked up)
Protein Wnt-3a: SYPIWWSLAVGPQYSSLGSQPILCASIPGLVPKQLRFCRNYVEIMPSVAEGIKIGIQECQHQFRGRRWNCTTVHDSLAIFGPVLDKATRESAFVHAIASAGVAFAVTRSCAEGTAAICGCSSRHQGSPGKGWKWGGCSEDIEFGGMVSREFADARENRPDARSAMNRHNNEAGRQAIASHMHLKCKCHGLSGSCEVKTCWWSQPDFRAIGDFLKDKYDSASEMVVEKHRESRGWVETLRPRYTYFKVPTERDLVYYEASPNFCEPNPETGSFGTRDRTCNVSSHGIDGCDLLCCGRGHNARAERRREKCRCVFHWCCYVSCQECTRVYDVHTCK

Assays:
Format in all cases: cell-based
[1] = test system: human salivary gland epithelial cells; test: Concentration screening of small molecule compounds and their combination in Dermacult (KEM); conditions: added in combination to KEM (Dermacult)
Description: Dermacult, which can stably culture human salivary gland epithelial cells in CDM, was used as the epithelial cell culture medium (keratinocyte expansion medium, KEM), and the small molecule compounds ROCK I/II inhibitor (Y-27632), TGF-beta pathway inhibitor (A83-01), and BMP pathway inhibitor (LDN193189) were added to determine the optimal concentrations at which cell characteristics were maintained and stable long-term culture was achieved, respectively (FIG. 3).
Finally, the combination experiments with different concentrations of the small molecule compounds confirmed that salivary gland epithelial cell growth was best maintained when Y-27632 10 μM, A83-01 1 μM, and LDN193189 0.1 μM were added to KEM (FIG. 4).

[2] = test system: human salivary gland epithelial cells; test: Small molecule compound combination check in K-SFM; conditions: for result of addition to the culture: various combinations of small molecule compounds
Excerpt: Isoproterenol had no effect.

[3] = test system: human salivary gland epithelial cells; test: Addition of WNT during cell separation with initial SCM in K-SFM
Description: • (1) The cells were homogenized in 10 ml culture medium, spread evenly onto a 100×20 mm culture dish, and then incubated in an incubator at 37° C. and 5% CO2. In this case, the composition of each culture medium is as shown in Table 1. • (2) To perform the subfractionation culturing method (SCM) to isolate epithelial monoclonal cells, after 2 hours, the culture medium containing the cells was transferred to a new 100×20 mm culture dish. This procedure was repeated two more times. • (3) After 24 hours, the dish resulting from (2) was cultured, and the existing culture medium was removed every 2-3 days and replaced it with fresh culture medium. • (4) After confirming the formation of colonies, when the size of a cell cluster forming one colony exceeded 1 cm^2, the culture medium was removed, the cluster was marked with a hydrophobic pen, and the residual culture medium was removed using 1×PBS. 50 to 100 μL of TrypLE+Y27632 was added, and the cells were stored in an incubator at 37° C. and 5% CO2 environment for 15 minutes. • (5) Each cell population detached from the dish by TrypLE was added to a separate 1.5 ml tube, and 1 ml of culture medium was added. • (6) After centrifugation at 300 g for 5 minutes at 4° C., the supernatant was removed, and the cells were homogenized and spread in 250 μL of fresh culture medium into each well of a 48-well plate for each cell population. […]

Molecule | concentration at which salivary gland epithelial cell growth was best maintained [1] | result of addition to the culture [2] | other results
Cc1cccc(-c2nn(C(=S)Nc3ccccc3)cc2-c2ccnc3ccccc23)n1 [A83-01] | 1 µM | universally good results | 
Cc1c[nH]c(-c2cnc(NCCNc3ccc(C#N)cn3)nc2-c2ccc(Cl)cc2Cl)n1 [Chir99021] |  | poor results | 
CC(C)Oc1ccc(-c2cnc3c(-c4ccnc5ccccc45)cnn3c2)cc1 [DMH-1] |  |  | concentration giving effects similar to Dermacult's YAL ([2]; LDN193189 replaced with DMH-1): 1 µM
CC(C)NCC(O)c1ccc(O)c(O)c1 (centres unmarked) [Isoproterenol] |  | no effect | 
c1ccc2c(-c3cnn4cc(-c5ccc(N6CCNCC6)cc5)cnc34)ccnc2c1 [LDN193189] | 0.1 µM |  | 
O=C(NOC[C@H](O)CO)c1ccc(F)c(F)c1Nc1ccc(I)cc1F [PD0325901] |  | poor results | 
C[C@@H](N)[C@H]1CC[C@H](C(=O)Nc2ccncc2)CC1 [Y-27632] | 10 µM | universally good results | 
B1 |  |  | effect on cell growth ([3]; initial addition): rapid cell growth; effect on cell morphology ([3]; prolonged addition): changed the morphology of the cells
